Here are results for three molecules from US8450479B2, “3-substituted-4-oxo-3,4-dihydro-imidazo[5,1-d][1,2,3,5-tetrazine-8-carboxylic acid amides and their use” (Pharminox Limited, priority 2007, dated 2013).

Values joined by “and” are separate entries in the source; they are usually repeats but may differ in a detail not shown here. Identical values can stand only once. Like-named read-outs stand apart in the source and are kept apart here.

What all share (type): cell-based
For assay [1], the system named is MGMT+ lines SNB 19M and U373M. As to the kind of experiment: MTT assay, MGMT+ glioma lines. The text has this: This assay was first described in Mosmann, T., 1983, “Rapid colorimetric assay for cellular growth and survival: Application to proliferation and cytotoxicity assays”, Journal of Immunological Methods, Vol. 65, Nos. 1-2, pp. 55-63.
Glioma cell lines, SNB19 and U373, both MGMT transfected (i.e., SNB19M and U373M) and vector controls (i.e., SNB19V and U373V); colorectal carcinoma cell lines, HCT116, HT29, and DLD1; melanoma cell line, SKMEL-28; breast cell line, MCF-7; and normal human fetal lung fibroblast cell line, MRC-5; were harvested at 60-80% confluence—during the logarithmic phase of growth.
Following harvesting, cells in suspension were gently syringed through a 23 gauge needle to obtain a near-single cell suspension. The desired cell seeding densities were used and added into 96-well plates in 180 μL culture medium if only one test compound was to be added, or 160 μL if two test compounds were to be added in combination, which were allowed to attach at 37° C. (5% CO2) overnight. For the 7 day assay, the cell seeding density for different cell lines was as follows: SNB19V, SNB19M: 650 cells/well; U373V, U373M: 650 cells/well; SNB19VR, U373VR: 650 cells/well; HCT116, DLD-1, SKMEL-28, MRC-5, MCF-7: 400 cells/well.
The two peripheral lanes were used as blank wells (cell free) and filled with 200 μL of medium in order to minimise medium evaporation from the plate. A separate time zero (T0) plate was set up alongside other plates. […]
After incubation at 37° C., 5% CO2 for 7 days (or immediately for the day 0 plate), cell viability was quantified using the MTT assay. […]
The intensity of absorbance is directly proportional to cell viability. A linear relationship exists between cell number and the amount of formazan and so the mean absorbance determined for each well of the same concentration can be used as a quantitative measure of viable cells compared to the controls. […]
On the technique in general: Tetrazolium dyes change colour on reduction, which living cells bring about.

In assay [2] the test system is Glioma U373V (MGMT low). The experiment in a line: MTT assay for 7-day toxicity assay. As to conditions: for GI50: Glioma U373V (MGMT low), read-out: GI50. In a few lines: (§1)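 MGMT-transfected or vector-control glioma cells were seeded at 650 cells/well, attached overnight, and exposed for 7 days at 37 °C to compound at final 0.5–1000 μM. Viability was read by MTT (0.4 mg/mL, 4 h) formazan absorbance, with a day-0 plate included.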

The subject of assay [3] is Glioma SNB19V (MGMT−). The experiment in a line: MTT assay for 7-day toxicity assay. The following applies: Glioma SNB19V (MGMT−), read-out: GI50. The essentials: as §1
Assay [4] concerns Glioma U373M (MGMT+). The experiment in a line: MTT assay for 7-day toxicity assay. As to conditions: Glioma U373M (MGMT+), read-out: GI50. In a few lines:
as §1

For assay [5], the system named is Glioma SNB19M (MGMT+). The experiment in a line: MTT assay for 7-day toxicity assay. The following applies: Glioma SNB19M (MGMT+); read-out: GI50. In a few lines:
as §1

[6] abbreviates: 168 h, 7-day MTT, single determinations.
Setting [7] is: 7-day MTT, single determinations.

Usually GI50 stands for the concentration that inhibits growth by half. For the molecule `CSCn1nnc2c(C(N)=O)ncn2c1=O` [KK-001, 3-(Methylthio)methyl-8-carbamoylimidazotetrazin-4-one], in assay [1], the “activity compared with TMZ, in words” value is “more active than TMZ”. Also, the GI50 came out at 45 µM in assay [2] (setting [6]); 73.4 µM in assay [2] (setting [7]); 118 µM in assay [3] (setting [6]); 96.5 µM in assay [3] (setting [7]); 59 µM in assay [4] (setting [6]); 54 µM in assay [4] (setting [7]).
On to `NC(=O)c1ncn2c(=O)n(CNC(=O)OCC3c4ccccc4-c4ccccc43)nnc12` [WW-001, (8-Carbamoyl-4-oxo-imidazo[5,1-d][1,2,3,5]tetrazin-3-ylmethyl)-carbamic acid 9H-fluoren-9-ylmethyl ester], for which the “activity compared with TMZ, in words” value in assay [1] was “more active than TMZ”. Besides, the GI50 in assay [2] was 35.8 µM and 60.1 µM; in assay [5], 71.2 µM and 56 µM; in assay [3], 64.8 µM and 67.8 µM; in assay [4], 50 µM and 62.5 µM.
`CCC(Cn1nnc2c(C(N)=O)ncn2c1=O)=NOC` [XX-001, 3-(2-Methoxyimino-butyl)-4-oxo-3,4-dihydro-imidazo[5,1-d][1,2,3,5]tetrazine-8-carboxylic acid amide]: the figures for the “activity compared with TMZ, in words” value in assay [1] and in assay [2] (MGMT− glioma cell line U373V) were “more active than TMZ” and “enhanced activity”, respectively. In addition, the GI50 in assay [2] is 18.5 µM and 10.6 µM; in assay [5] it was 47.2 µM and 47.9 µM.
